Source: US20150034084A1, “[…] NITRIC OXIDE FOR TREATING RESPIRATORY DISEASES” (Advanced Inhalation Therapies (AIT) Ltd., priority 2012, published 2015)
Read-outs that look alike come from different tables or passages of the source.

Assays:
P. aeruginosa (ATCC) = settings: 200 ppm gNO, saline; cited from earlier work
[1] = system: chronic, non-healing wound; settings: topical 200 ppm gNO, cited from earlier work
Enterobacter sp. = settings: 200 ppm gNO, saline; cited from earlier work
Serracia sp. = settings: 200 ppm gNO, saline; cited from earlier work
[2] = rats, cited from earlier work
[3] = system: influenza A/victoria/H3N2; settings: 160 ppm gNO, cited from earlier work
MRSA = settings: 200 ppm gNO, saline; cited from earlier work
[4] = Phase I safety study: pulmonary function tests; format: in vivo, human
Method: (§1) After obtaining informed consent, treatment was initiated within 5 days of enrollment. Subjects were housed in a hospital ward and received 160 ppm gNO for 30 minutes every four hours (Q4h), five times a day, for five consecutive days by inhalation. Subjects returned for follow-up evaluations 3, 7 and 21 days after the final gNO administration. Subject safety was determined by monitoring vital signs, methemoglobin levels, lung function, blood chemistry, hematology, prothrombin time, inflammatory cytokine/chemokines levels and endothelial activation. These parameters were compared to baseline and at various time-points during and after gNO administration.
Subjects underwent full pulmonary function tests (PFT), including lung diffusing capacity (DLCO) by a trained technician utilizing a calibrated pulmonary function system (Jaeger MasterScreen, VIASYS Healthcare, USA) on screening and days 2, 8, 12 and 26. Spirometry test (Microloop by Micro Medical, England) was performed on days 1, 3 and 4. Effect of gNO on lung function and DLCO was determined by changes from baseline, treatment days and follow up days.

[5] = system: bovine respiratory disease; settings: intermittent 30 minute exposures of gNO, cattle; cited from earlier work
[6] = Phase I safety study: serum nitrite/nitrate by Griess reagent; format: in vivo, human; settings: during the trial, 160 ppm gNO
Method: as §1
These parameters were measured continuously during every gNO administration course and for 3.5 hours after the first treatment of the day. Daily serum samples were collected and frozen at −80° C. and the serum […] level was measured using the Griess reagent.

[7] = Phase I safety study: inspiratory NO2 level during gNO delivery; design: species or system human; settings: inspired gas at mouthpiece
Method: Subjects were administered gNO through a modified disposable mouthpiece to maximize mixing. Inspiration was spontaneously initiated by the subject from a conventional intermittent positive pressure breathing respirator (Mark-7, Carefusion, USA) in fixed flow mode delivering 48 liters per minute (LPM). Flows of gas were verified with a calibrated mass flow meter (TSI, USA). Gaseous nitric oxide (gNO, obtained at INOmax, Ikaria, USA) at a concentration of 800 ppm delivered at a flow of 12 LPM was titrated into a distal delivery port on the mouth piece connected to the respirator during inspiratory phase only (pressure switch). The Mark 7 respirator was supplied by an air/oxygen blender (Bird Sentry, Carefusion, USA) set to deliver 26% oxygen.
The levels of gNO, NO2, O2 and methemoglobin were monitored during the administration of gNO. The target gas mixture was 160 ppm gNO with a nitrogen dioxide (NO2) level of less than 5 ppm and an oxygen (O2) level ranging from 21% to 25%. Inspiratory NO, NO2 and O2 levels were continuously monitored by sampling from the mouthpiece sample port located about 6 millimeters from the mouth of the subject with an AeroNOx (Pulmonox, AB, Canada) NO, NO2 and O2 electrochemical analyzer. Delivery safety was determined by the number of occasions that NO2 exceeded 5 ppm, gNO exceeding 10% variation and O2 dropping below 20% during gNO administration. […]

S. aureus (Clinical) = settings: 200 ppm gNO, saline; cited from earlier work
Group B Streptococci = settings: 200 ppm gNO, saline; cited from earlier work
[8] = in vivo; cited from earlier work
P. aeruginosa = settings: cited from earlier work
[9] = system: highly pathogenic Avian Influenza H7N3; settings: cited from earlier work
S. maltophilia = settings: 200 ppm gNO, saline; cited from earlier work
E. Coli = settings: 200 ppm gNO, saline; cited from earlier work
Mycobacterium = settings: 200 ppm gNO, saline; cited from earlier work
[10] = rats, gNO concentrations below 200 ppm, 6 hours/day for 28 days; cited from earlier work
S. aureus = settings: cited from earlier work
[11] = 50-160 ppm gNO, solid media, vs medical air
[12] = gNO greater than 120 ppm, agar plates

[N]=O [gNO, nitric oxide]
LD100 (P. aeruginosa (ATCC)): 3 h
Latent Period (P. aeruginosa (ATCC)): 1 h
−2.5 Log10 (P. aeruginosa (ATCC)): 2.1 hours
reduction of wound size ([1]; at one week): 42%
biofilm on wound ([1]; within the first three days of treatment): no longer visibly present
LD100 (Enterobacter sp.): 6 h
Latent Period (Enterobacter sp.): 4 h
−2.5 Log10 (Enterobacter sp.): 5.3 hours
LD100 (Serracia sp.): 6 h
Latent Period (Serracia sp.): 4 h
−2.5 Log10 (Serracia sp.): 4.9 hours
mortality ([2]; 300 ppm gNO, groups of 10, first 1-2 days): Six of the animals
mortality ([2]; 400 ppm gNO, 6 hours per day): all of the animals died on the first day
MetHb level ([2]; 400 ppm gNO): 72.5 percents
mortality ([2]; 500 ppm gNO, 6 hours per day): all of the animals died on the first day
MetHb level ([2]; 500 ppm gNO): 67 percents
infectivity ([3]; MDCK plaque assay, A/Victoria/H3N2): reducing the infectivity
anti-viral effect, intermittent versus single exposure ([3]; one 30 minute dose vs three 30 minute treatments Q4h): more evident in the intermittent form of exposure
LD100 (MRSA): 5 h
Latent Period (MRSA): 3 h
−2.5 Log10 (MRSA): 4.2 hours
lung parenchymal injury ([4]; 160 ppm NO, measured by lung function parameters): did not cause lung parenchymal injury
pulmonary function tests, abnormalities ([4]; during and after gNO administration, 160 ppm): did not reveal any abnormalities
DLCO versus baseline ([4]; during the course of the study): did not change from baseline
FEV1 versus baseline ([4]; during the course of the study): did not differ from baseline
forced vital capacity (FVC) versus baseline ([4]; during the course of the study): did not change from baseline
maximum mid-expiratory flow (MMEF) versus baseline ([4]; during the course of the study): did not differ from baseline
residual volume (RV) versus baseline ([4]; during the course of the study): did not change from baseline
total lung capacity (TLC) versus baseline ([4]; during the course of the study): did not change from baseline
clinical symptoms of bovine respiratory disease [5]: decrease the clinical symptoms
serum nitrite/nitrate levels versus baseline [6]: no significant differences
highest NO2 level recorded during the treatments ([7]; 160 ppm gNO): 2.8 ppm
mean NO2 level ([7]; 95% confidence level 2.17-2.47 ppm): 2.32 ppm
LD100 (S. aureus (Clinical)): 4 h
Latent Period (S. aureus (Clinical)): 3 h
−2.5 Log10 (S. aureus (Clinical)): 3.7 hours
LD100 (Group B Streptococci): 2 h
Latent Period (Group B Streptococci): 1 h
−2.5 Log10 (Group B Streptococci): 1.5 hours
half-life in the body [8]: less than 6 seconds
nitrate excreted in the urine, share of the nitric oxide dose inhaled [8]: more than 70%
survival (downward bactericidal trend towards) (P. aeruginosa; [11]): 5-10%
reduction of colony formation (P. aeruginosa; [12]): greater than 90%
time required to achieve the >90% reduction of colony formation (P. aeruginosa; gNO greater than 120 ppm): 8 to 12 h
infectivity [9]: reducing the infectivity
LD100 (S. maltophilia): 4 h
Latent Period (S. maltophilia): 2 h
−2.5 Log10 (S. maltophilia): 2.8 hours
LD100 (E. Coli): 5 h
Latent Period (E. Coli): 3 h
−2.5 Log10 (E. Coli): 4.2 hours
LD100 (Mycobacterium): 10 h
Latent Period (Mycobacterium): 7 h
−2.5 Log10 (Mycobacterium): 9.2 hours
deaths [10]: No deaths occurred
survival (downward bactericidal trend towards) (S. aureus; [11]): 5-10%
reduction of colony formation (S. aureus; [12]): greater than 90%
time required to achieve the >90% reduction of colony formation (S. aureus; gNO greater than 120 ppm): 8 to 12 h
